Experimental data as given in US4868321A, “Isothiocyanate intermediates” (FMC Corporation, priority 1988, dated 1989).

Columns and labels:
Format in all cases: in vivo
Cotton [1] = experiment: Preemergence Herbicidal Activity, Cotton; conditions: Gossypium hirsutum, pre-emergence; for plant injury at 250 g/ha: 0.25 kg/ha
Summary of the method: (§1)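 Applications are made pre- or postemergence from 50/50 acetone/water solutions of each compound. Effect is recorded as % C at the stated kg/ha rate.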

Soybean [2] = experiment: Preemergence Herbicidal Activity, Soybean; conditions: Glycine max, pre-emergence; for plant injury at 250 g/ha: 0.25 kg/ha
Summary of the method: (§2)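 Compounds were applied at rates given in kilograms per hectare, and herbicidal effect was scored as percent control.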

Field Corn [3] = experiment: Preemergence Herbicidal Activity, Field Corn; conditions: Zea mays, pre-emergence; for plant injury at 250 g/ha: 0.25 kg/ha
Summary of the method: as §2

Rice [4] = experiment: Preemergence Herbicidal Activity, Rice; conditions: Oryza sativa, pre-emergence; for plant injury at 250 g/ha: 0.25 kg/ha
Summary of the method: as §2

Wheat [5] = experiment: Preemergence Herbicidal Activity, Wheat; conditions: Triticum aestivum, pre-emergence; for plant injury at 250 g/ha: 0.25 kg/ha
Summary of the method: as §2

Field Bindweed [6] = experiment: Preemergence Herbicidal Activity, Field Bindweed; conditions: pre-emergence; for pest or weed control at 250 g/ha: 0.25 kg/ha
Summary of the method: as §1

Morningglory [7] = experiment: Preemergence Herbicidal Activity, Morningglory; conditions: Ipomoea, pre-emergence; for pest or weed control at 250 g/ha: 0.25 kg/ha
Summary of the method: as §1

Velvetleaf [8] = experiment: Preemergence Herbicidal Activity, Velvetleaf; conditions: Abutilon theophrasti, pre-emergence; for pest or weed control at 250 g/ha: 0.25 kg/ha
Summary of the method: as §1

Barnyardgrass [9] = experiment: Preemergence Herbicidal Activity, Barnyardgrass; conditions: Echinochloa crus-galli, pre-emergence; for pest or weed control at 250 g/ha: 0.25 kg/ha
Summary of the method: (§3)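 Kilogram-per-hectare application rates; outcome scored by percent control of treated plants.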

Green Foxtail [10] = experiment: Preemergence Herbicidal Activity, Green Foxtail; conditions: Setaria viridis, pre-emergence; for pest or weed control at 250 g/ha: 0.25 kg/ha
Summary of the method: as §3

Johnsongrass [11] = experiment: Preemergence Herbicidal Activity, Johnsongrass; conditions: Sorghum halepense, pre-emergence; for pest or weed control at 250 g/ha: 0.25 kg/ha
Summary of the method: as §3

Cotton [12] = experiment: Postemergence Herbicidal Activity, Cotton; conditions: Gossypium hirsutum, post-emergence; for plant injury at 250 g/ha: 0.25 kg/ha
Summary of the method: as §1

Soybean [13] = experiment: Postemergence Herbicidal Activity, Soybean; conditions: Glycine max, post-emergence; for plant injury at 250 g/ha: 0.25 kg/ha
Summary of the method: as §2

Field Corn [14] = experiment: Postemergence Herbicidal Activity, Field Corn; conditions: Zea mays, post-emergence; for plant injury at 250 g/ha: 0.25 kg/ha
Summary of the method: as §2

Rice [15] = experiment: Postemergence Herbicidal Activity, Rice; conditions: Oryza sativa, post-emergence; for plant injury at 250 g/ha: 0.25 kg/ha
Summary of the method: as §2

Wheat [16] = experiment: Postemergence Herbicidal Activity, Wheat; conditions: Triticum aestivum, post-emergence; for plant injury at 250 g/ha: 0.25 kg/ha
Summary of the method: as §2

Field Bindweed [17] = experiment: Postemergence Herbicidal Activity, Field Bindweed; conditions: post-emergence; for pest or weed control at 250 g/ha: 0.25 kg/ha
Summary of the method: as §1

Morningglory [18] = experiment: Postemergence Herbicidal Activity, Morningglory; conditions: Ipomoea, post-emergence; for pest or weed control at 250 g/ha: 0.25 kg/ha
Summary of the method: as §1

Velvetleaf [19] = experiment: Postemergence Herbicidal Activity, Velvetleaf; conditions: Abutilon theophrasti, post-emergence; for pest or weed control at 250 g/ha: 0.25 kg/ha
Summary of the method: as §1

Barnyardgrass [20] = experiment: Postemergence Herbicidal Activity, Barnyardgrass; conditions: Echinochloa crus-galli, post-emergence; for pest or weed control at 250 g/ha: 0.25 kg/ha
Summary of the method: as §3

Green Foxtail [21] = experiment: Postemergence Herbicidal Activity, Green Foxtail; conditions: Setaria viridis, post-emergence; for pest or weed control at 250 g/ha: 0.25 kg/ha
Summary of the method: as §3

Johnsongrass [22] = experiment: Postemergence Herbicidal Activity, Johnsongrass; conditions: Sorghum halepense, post-emergence; for pest or weed control at 250 g/ha: 0.25 kg/ha
Summary of the method: as §3

CCCS(=O)(=O)N(C)c1cc(-n2nnn(CCCF)c2=O)c(F)cc1Cl [Compound 29, 1-[4-Chloro-2-fluoro-5-(N--methyl-N--propylsulfonylamino)phenyl]-1,4-dihydro-4-(3-fluoropropyl)-5H--tetrazol-5-one]
plant injury at 250 g/ha (Cotton [1]): 60%
plant injury at 250 g/ha (Soybean [2]): 30%
plant injury at 250 g/ha (Field Corn [3]): 95%
plant injury at 250 g/ha (Rice [4]): 60%
plant injury at 250 g/ha (Wheat [5]): 80%
pest or weed control at 250 g/ha (Field Bindweed [6]): 70%
pest or weed control at 250 g/ha (Morningglory [7]): 70%
pest or weed control at 250 g/ha (Velvetleaf [8]): 100%
pest or weed control at 250 g/ha (Barnyardgrass [9]): 100%
pest or weed control at 250 g/ha (Green Foxtail [10]): 100%
pest or weed control at 250 g/ha (Johnsongrass [11]): 100%
plant injury at 250 g/ha (Cotton [12]): 70%
plant injury at 250 g/ha (Soybean [13]): 70%
plant injury at 250 g/ha (Field Corn [14]): 40%
plant injury at 250 g/ha (Rice [15]): 60%
plant injury at 250 g/ha (Wheat [16]): 80%
pest or weed control at 250 g/ha (Field Bindweed [17]): 80%
pest or weed control at 250 g/ha (Morningglory [18]): 70%
pest or weed control at 250 g/ha (Velvetleaf [19]): 100%
pest or weed control at 250 g/ha (Barnyardgrass [20]): 50%
pest or weed control at 250 g/ha (Green Foxtail [21]): 60%
pest or weed control at 250 g/ha (Johnsongrass [22]): 70%

CCCS(=O)(=O)N(c1cc(-n2nnn(CCCF)c2=O)c(F)cc1Br)S(=O)(=O)CCC [Compound 27]
plant injury at 1000 g/ha (Cotton [1]; 1.0 kg/ha): 95%
plant injury at 1000 g/ha (Soybean [2]; 1.0 kg/ha): 30%
plant injury at 1000 g/ha (Field Corn [3]; 1.0 kg/ha): 95%
plant injury at 1000 g/ha (Rice [4]; 1.0 kg/ha): 60%
plant injury at 1000 g/ha (Wheat [5]; 1.0 kg/ha): 60%
pest or weed control at 1000 g/ha (Field Bindweed [6]; 1.0 kg/ha): 100%
pest or weed control at 1000 g/ha (Morningglory [7]; 1.0 kg/ha): 100%
pest or weed control at 1000 g/ha (Velvetleaf [8]; 1.0 kg/ha): 100%
pest or weed control at 1000 g/ha (Barnyardgrass [9]; 1.0 kg/ha): 100%
pest or weed control at 1000 g/ha (Green Foxtail [10]; 1.0 kg/ha): 100%
pest or weed control at 1000 g/ha (Johnsongrass [11]; 1.0 kg/ha): 95%
plant injury at 1000 g/ha (Cotton [12]; 1.0 kg/ha): 100%
plant injury at 1000 g/ha (Soybean [13]; 1.0 kg/ha): 90%
plant injury at 1000 g/ha (Field Corn [14]; 1.0 kg/ha): 95%
plant injury at 1000 g/ha (Rice [15]; 1.0 kg/ha): 30%
plant injury at 1000 g/ha (Wheat [16]; 1.0 kg/ha): 80%
pest or weed control at 1000 g/ha (Field Bindweed [17]; 1.0 kg/ha): 95%
pest or weed control at 1000 g/ha (Morningglory [18]; 1.0 kg/ha): 100%
pest or weed control at 1000 g/ha (Velvetleaf [19]; 1.0 kg/ha): 100%
pest or weed control at 1000 g/ha (Barnyardgrass [20]; 1.0 kg/ha): 100%
pest or weed control at 1000 g/ha (Green Foxtail [21]; 1.0 kg/ha): 100%
pest or weed control at 1000 g/ha (Johnsongrass [22]; 1.0 kg/ha): 100%

CS(=O)(=O)Nc1cc(-n2nnn(CCCF)c2=O)c(F)cc1Cl [Compound 2, 1-[4-chloro-2-fluoro-5-(N--methylsulfonylamino)phenyl]-1,4-dihydro-4-(3-fluoropropyl)-5H--tetrazol-5-one]
plant injury at 250 g/ha (Cotton [1]): 95%
plant injury at 250 g/ha (Soybean [2]): 20%
plant injury at 250 g/ha (Field Corn [3]): 40%
plant injury at 250 g/ha (Rice [4]): 70%
plant injury at 250 g/ha (Wheat [5]): 10%
pest or weed control at 250 g/ha (Field Bindweed [6]): 100%
pest or weed control at 250 g/ha (Morningglory [7]): 100%
pest or weed control at 250 g/ha (Velvetleaf [8]): 100%
pest or weed control at 250 g/ha (Barnyardgrass [9]): 60%
pest or weed control at 250 g/ha (Green Foxtail [10]): 40%
pest or weed control at 250 g/ha (Johnsongrass [11]): 40%
plant injury at 250 g/ha (Cotton [12]): 100%
plant injury at 250 g/ha (Soybean [13]): 50%
plant injury at 250 g/ha (Field Corn [14]): 80%
plant injury at 250 g/ha (Rice [15]): 50%
plant injury at 250 g/ha (Wheat [16]): 20%
pest or weed control at 250 g/ha (Field Bindweed [17]): 100%
pest or weed control at 250 g/ha (Morningglory [18]): 100%
pest or weed control at 250 g/ha (Velvetleaf [19]): 100%
pest or weed control at 250 g/ha (Barnyardgrass [20]): 40%
pest or weed control at 250 g/ha (Green Foxtail [21]): 50%
pest or weed control at 250 g/ha (Johnsongrass [22]): 50%
